According to ChEMBL document CHEMBL1128521, “Partial GABAA receptor agonists. Synthesis and in vitro pharmacology of a series of nonannulated analogs of 4,5,6,7-tetrahydroisoxazolo[5,4-c]pyridin-3-ol” (J Med Chem, 1995):

Experiments:
[1] = biological target: GABA B receptor (Rattus norvegicus, UniProt O88871+Q9Z0U4)
[2] = organism: Rattus norvegicus; experiment: cells; assay type: functional, organism-based; settings: Brain
[3] = biological target: GABA-A receptor; anion channel
[4] = Reversal potential is determined electrophysiologically against the GABA A receptor; assay type: functional
[5] = physchem
Description: PKa values of the compound

Sequence of GABA B receptor (Q9Z0U4 whole entry): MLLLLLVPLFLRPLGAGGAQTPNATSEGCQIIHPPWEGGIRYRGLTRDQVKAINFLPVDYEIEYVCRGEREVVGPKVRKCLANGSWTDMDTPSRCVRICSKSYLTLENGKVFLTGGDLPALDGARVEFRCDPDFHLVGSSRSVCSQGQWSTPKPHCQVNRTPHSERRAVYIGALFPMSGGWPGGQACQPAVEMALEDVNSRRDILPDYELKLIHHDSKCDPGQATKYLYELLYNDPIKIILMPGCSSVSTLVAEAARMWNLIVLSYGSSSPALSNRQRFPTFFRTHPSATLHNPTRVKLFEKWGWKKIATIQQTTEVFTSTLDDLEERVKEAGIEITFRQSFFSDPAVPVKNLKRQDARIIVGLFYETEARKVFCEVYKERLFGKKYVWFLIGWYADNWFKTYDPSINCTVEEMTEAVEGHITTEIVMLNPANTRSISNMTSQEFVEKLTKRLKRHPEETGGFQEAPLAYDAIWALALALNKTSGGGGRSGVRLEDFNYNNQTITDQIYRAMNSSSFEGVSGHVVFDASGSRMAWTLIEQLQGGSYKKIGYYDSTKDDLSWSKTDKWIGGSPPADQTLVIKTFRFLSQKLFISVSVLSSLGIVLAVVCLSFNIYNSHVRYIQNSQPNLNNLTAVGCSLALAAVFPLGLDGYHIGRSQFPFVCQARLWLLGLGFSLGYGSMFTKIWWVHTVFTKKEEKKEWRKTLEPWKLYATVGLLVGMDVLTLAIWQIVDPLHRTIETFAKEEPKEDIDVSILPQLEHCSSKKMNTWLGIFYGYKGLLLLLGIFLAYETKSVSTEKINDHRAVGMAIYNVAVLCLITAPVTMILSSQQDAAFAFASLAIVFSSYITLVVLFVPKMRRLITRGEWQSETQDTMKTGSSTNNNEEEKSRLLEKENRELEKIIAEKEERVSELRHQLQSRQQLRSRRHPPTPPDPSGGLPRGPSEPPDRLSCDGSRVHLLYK
Sequence of GABA B receptor (O88871 whole entry): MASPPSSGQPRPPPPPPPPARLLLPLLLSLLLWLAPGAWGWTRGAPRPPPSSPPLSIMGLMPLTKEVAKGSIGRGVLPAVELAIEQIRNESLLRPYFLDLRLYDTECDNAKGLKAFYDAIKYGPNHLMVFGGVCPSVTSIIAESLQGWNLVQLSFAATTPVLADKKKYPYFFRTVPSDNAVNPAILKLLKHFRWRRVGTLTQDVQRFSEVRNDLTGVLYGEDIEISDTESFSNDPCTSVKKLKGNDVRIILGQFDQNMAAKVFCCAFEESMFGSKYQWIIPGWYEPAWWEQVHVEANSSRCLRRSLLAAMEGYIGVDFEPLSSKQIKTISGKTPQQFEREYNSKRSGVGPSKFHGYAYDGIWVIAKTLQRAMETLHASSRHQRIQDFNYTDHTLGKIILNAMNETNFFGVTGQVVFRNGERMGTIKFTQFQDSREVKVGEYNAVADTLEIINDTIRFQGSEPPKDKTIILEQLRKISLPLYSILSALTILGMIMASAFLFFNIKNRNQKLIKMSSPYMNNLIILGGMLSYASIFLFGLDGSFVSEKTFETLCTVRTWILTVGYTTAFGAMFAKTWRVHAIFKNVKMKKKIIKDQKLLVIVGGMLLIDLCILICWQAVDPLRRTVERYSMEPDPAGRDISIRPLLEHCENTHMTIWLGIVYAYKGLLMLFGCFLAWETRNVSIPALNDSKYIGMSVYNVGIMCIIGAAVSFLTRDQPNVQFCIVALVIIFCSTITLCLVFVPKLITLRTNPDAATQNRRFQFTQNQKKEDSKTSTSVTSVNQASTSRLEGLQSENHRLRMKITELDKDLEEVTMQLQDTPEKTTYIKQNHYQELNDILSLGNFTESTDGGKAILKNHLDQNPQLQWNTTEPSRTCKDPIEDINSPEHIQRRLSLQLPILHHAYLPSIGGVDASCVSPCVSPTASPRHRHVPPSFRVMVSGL

Row | IC50 [1] [µM] | IC50 [3] [µM] | SMILES | IC50 [2] [µM] | Reverse potential [4] | pKa [5]
1 | > 100 | 52 | O=C(O)/C=C/C1CCNCC1 | > 300 | – | –
2 | > 100 | 0.022 | O=C(O)C1=CCNCC1 [ISOGUVACINE] | > 300 | 5.2 | –
3 | > 100 | > 100 | O=C(O)CCC1CCNCC1 | > 300 | – | –
4 | – | – | Oc1cc(C2=CCNCC2)sn1 | > 300 | 5.3 | –
5 | > 100 | > 100 | O=C(O)/C=C/C1=CCNCC1 | > 300 | – | –
6 | – | – | Oc1cc(C2CCNCC2)on1 | > 300 | 5.9 | 5.3
7 | > 100 | > 100 | O=C(O)CCC1=CCNCC1 | > 300 | – | –

Row | SMILES | IC50 [1] [µM] | IC50 [3] [µM] | IC50 [2] [µM] | Reverse potential [4] | pKa [5]
8 | Oc1cc(C2=CCNCC2)on1 | > 100 | 32 | > 300 | 5.6 | 5.1
9 | O=c1cc(C2=CCNCC2)s[nH]1 | > 100 | – | – | – | –
10 | Oc1cc(C2CCNCC2)no1 | > 100 | 26 | > 300 | 4.3 | –
11 | Oc1cc(C2CCNCC2)sn1 | > 100 | 1.3 | > 300 | 5.5 | 6.9
